Experimental data published in patent US4499104A, “Imidazole compound, the process for its preparation, and therapeutically active compositions containing same” (priority 1976, dated 1985).

Columns and labels:
[1] = Edema by carrageen (rat paw), antiedematous activity; type: in vivo, Rats of the Wistar-Roux-Ocefa stock; conditions: for IT (DL50/DE50): DL50/DE50, os; for ED50: Rattus norvegicus, po, os, probits method and graphically, read-out: DE50 (the source's name)
Experimental: (§1) A 1% physiological solution of carrageen was used. Rats of the Wistar-Roux-Ocefa stock having a weight of 150±30 g were used. The drugs were suspended in 1% carboxymethylcellulose or dissolved in distilled water and administered orally one hour before the inflammatory agent in a volume of 0.5 ml/100 g. The carrageen was adminstered subcutaneously in the subplanetary region of one of the rear paws. The volume of the paw was measured platysmagraphically initially and then after 1.5 hour, 3 hours and 5 hours after administering the carrageen. One inflammation unit was defined as the displacement of 0.01 ml of Hg.
(§2) The edema was evaluated as the difference in volume of the rear paw before and after the carrageen. The DE 50 was calculated by the probits method and graphically. The comparison drugs used were phenylbutazone and niflumic acid.

[2] = Edema by carrageen in normal and adrenoprival (suprarenectomised) rats; type: in vivo, rat; set-up: Edema by carrageen: unit not given beside the values; conditions: adrenoprival rats
Experimental: as §1, §2
To evaluate if the activity of the chlorophenazole on edema by carrageen was influenced by stimulation of the suprarenes, experiments were carried out with suprarenectomised rats. Normal rats were also compared with falsely operated rats to evaluate the influence of the operational trauma.

in vivo = conditions: rat, po
[3] = Action on sleep by barbiturates; type: in vivo, Wistar-Ocefa rats; conditions: pentobarbital sodium 40 mg/kg alone
Experimental: […] Loss of the redressment reflex was taken to indicate commencement of sleep. The chlorophenazone was administered orally with a dose of 1/10 of the DL50. The induction time and the duration of sleep were measured.

[4] = Pulminary edema by carrageen (Sancilio method, pleural exudate); type: in vivo, Wistar-Roux-Ocefa rats; conditions: for ml of exudate: 30 mg/Kg, pleural cavity
Experimental: Using the Sancilio method (Sancilio F. L., J. Pharmacol. Exptl. Therap., 168, 199 (1969); Sancilio L. F. Rodrigues R., Proc. Soc. Exptl. Biol. Med., 123, 707 (1969); Sancilio L. F. Lawrence R., Proc. Soc. Exptl. Biol. Med., 127, 597 (1968), pulminary irritation was induced in Wistar-Roux-Ocefa rats and the capacity of chlorophenazole and other drugs to prevent production of pleural exudate was measured. 5 ml of a 0.025% carrageen solution and 0.075% Evans blue were injected into the pleurea.
The action of chlorophenazole, mepyrazole and phenylbutazone were evaluated from the quantity of exudate present in the pleural cavity after 1 and 6 hours.

rats = assay: Chronic toxicity, first experiment (60 days); type: in vivo, Wistar-Ocefa rats; conditions: rat, in vivo
Experimental: Wistar-Ocefa rats of both sexes weighing 70-90 g were used, divided into groups of 30 animals (15 males and 15 females) to a total of […].
Chlorophenazole and phenylbutazone (reference drug) were administered orally for a period of 60 days in doses of 30-60 mg/kg of chlorophenazole and 8-160 mg/kg of phenylbutazone (first experiment) and for a period of 5 months in doses of 6-12 mg/kg of chlorophenazole and 16 mg/kg of phenylbutazone (second experiment).
The following parameters were determined periodically: behavior, general state, food consumption, body weight, red blood cell number, white blood cell number, leucocite formula, hemoglobin, hematocrit, globular value, total proteins, glycemia, azotemia, cholesterol, total lipids, triglycerides, creatinine, GOT, GPT, urine analysis. At the end of the experiment the animals were sacrificed, their general state was observed, the following organs were weighed: liver, spleen, kidneys, supranenes, ovary and testicles, lungs, heart, stomach.

Row | Compound | Δ Volume of the inflamed paw ([1]; 10 mg/kg oral, 1.5 hours) [UPI] | Δ Volume of the inflamed paw ([1]; 10 mg/kg oral, 3 hours) [UPI] | Δ Volume of the inflamed paw ([1]; 10 mg/kg oral, 5 hours) [UPI] | Δ Volume of the inflamed paw ([1]; 20 mg/kg oral, 1.5 hours) [UPI] | Δ Volume of the inflamed paw ([1]; 20 mg/kg oral, 3 hours) [UPI] | Δ Volume of the inflamed paw ([1]; 20 mg/kg oral, 5 hours) [UPI] | Δ Volume of the inflamed paw ([1]; 40 mg/kg oral, 1.5 hours) [UPI] | Δ Volume of the inflamed paw ([1]; 40 mg/kg oral, 3 hours) [UPI] | Δ Volume of the inflamed paw ([1]; 40 mg/kg oral, 5 hours) [UPI] | IT (DL50/DE50) [1] | ED50 [1] [mg/kg] | LD50 (in vivo) [mg/kg] | ml of exudate [4] [mL] | further results
1 | O=C(O)c1cccnc1Nc1cccc(C(F)(F)F)c1 [Niflumic acid] | 25 | 51 | 80 | 20 | 35 | 56 | 18 | 33 | 49 | 11.40 | 7 | 30 | – | Edema by carrageen ([2]; 10 mg/kg, 1.5 hours): 25; Edema by carrageen ([2]; 10 mg/kg, 3 hours): 34; Edema by carrageen ([2]; 20 mg/kg, 1.5 hours): 20; Edema by carrageen ([2]; 20 mg/kg, 3 hours): 24; Edema by carrageen ([2]; 40 mg/kg, 1.5 hours): 19; Edema by carrageen ([2]; 40 mg/kg, 3 hours): 30
2 | CCCC(C)C1(CC)C(=O)NC(=O)NC1=O (stereo not shown) [Pentobarbital sodium, reference compound] | – | – | – | – | – | – | – | – | – | – | – | – | – | Induction time [3]: 4.4 min; Sleeping time [3]: 49.1 min
3 | CCCCC1C(=O)N(c2ccccc2)N(c2ccccc2)C1=O [Phenylbutazone] | 28 | 65 | 88 | 26 | 59 | 74 | 24 | 51 | 73 | 23.40 | 15 | 351 | 3.12 | activity on pleural exudate ([4]; exudate after 1 and 6 hours): significantly active; cholesterol (rats): the same for cholesterol at the larger doses; stomach appearance (rats): contract and pale
4 | COc1cc(C)nc(-n2nc(C)cc2OC)n1 [Mepyrazole] | – | – | – | – | – | – | – | – | – | – | – | – | 4.38 | –
